Source: paper PMC5116089, “Sulfheme formation during homocysteine S-oxygenation by catalase in cancers and neurodegenerative diseases” (Nature Communications, 2016)

Experiments:
Bovine liver catalase = target: T1, Bovine liver catalase (Bos taurus, UniProt P00432); assay: Time course of catalase inactivation by HCys (activity test); type: biochemical; conditions: CAT + 2 mM HCys, 1 mM DTPA, pH 7.4, with the additive named (DMPO 100 mM, dimedone 4 mM, SOD 40 U); n=2±s.d.
T1 construct: Bovine liver catalase was also purchased from Sigma-Aldrich; purchased Sigma-Aldrich; host or cells: bovine liver
T1 sequence (P00432 2-527 limits assumed): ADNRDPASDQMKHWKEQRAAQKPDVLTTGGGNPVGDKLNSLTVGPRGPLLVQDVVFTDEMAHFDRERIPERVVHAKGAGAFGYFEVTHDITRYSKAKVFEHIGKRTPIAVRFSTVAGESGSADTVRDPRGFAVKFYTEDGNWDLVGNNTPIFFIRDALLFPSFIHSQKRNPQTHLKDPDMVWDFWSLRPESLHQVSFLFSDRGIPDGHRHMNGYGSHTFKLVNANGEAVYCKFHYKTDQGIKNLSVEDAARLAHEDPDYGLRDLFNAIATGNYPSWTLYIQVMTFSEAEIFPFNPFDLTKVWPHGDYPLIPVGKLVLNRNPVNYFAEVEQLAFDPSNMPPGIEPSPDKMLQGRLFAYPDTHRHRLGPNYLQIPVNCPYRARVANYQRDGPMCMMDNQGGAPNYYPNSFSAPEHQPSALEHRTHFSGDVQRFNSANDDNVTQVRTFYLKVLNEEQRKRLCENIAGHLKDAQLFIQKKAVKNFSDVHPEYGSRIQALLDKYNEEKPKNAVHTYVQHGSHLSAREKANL
Experimental: (§1) CAT activity was measured on an Uvikon 941 spectrophotometer equipped with a temperature controlled water bath (±1 °C) by following the disappearance of H2O2 at 240 nm over 30–120 s at 25 °C. Catalase activity was calculated based on the rate of decomposition of hydrogen peroxide, which is proportional to the reduction of the absorbance at 240 nm. Experiments were carried out in a 3 ml quartz cuvette containing 11.7 mM H2O2 in 50 mM KPi, pH 7.4±1 mM DTPA and the reaction was initiated by adding 0.3–0.6 pmoles of CAT. The effect of biological thiols on the activity of CAT under physiological conditions was determined from a solution of CAT (30–60 nM) preincubated at 25 °C for at least 120 min as a function thiol concentration (0–40 mM for HCys and Cys, 0–100 mM for GSH) in 50 mM KPi, pH 7.4, 1 mM DTPA. Control experiments (biological thiols alone) were also performed in parallel. In each case, 10 μl of the reaction mixture (biological thiols±CAT) was added to the cuvette containing the H2O2 solution to initiate the reaction. Similarly, the effect of biological thiols on the activity of CAT under pathological conditions was determined from a solution of CAT (30–60 nM) containing a 2.124±0.386 molar excess of iron that was preincubated with various concentrations of thiols (0–1 mM) for at least 120 min at 25 °C in 50 mM KP at pH 7.4. The relative half inhibitory concentration (IC50) values were obtained by plotting the relative activity of CAT (A, in per cent) as a function of the concentration of thiol-compounds (RSH) and by fitting the data with the following four parameter logistic equation: A=Amin+(Amax−Amin)/(1+([RSH]/IC50)^n), where Amax is the maximal activity of CAT (constrained at 100%), Amin is the minimum activity achieved at saturating concentration of RSH and n is the Hillslope that characterizes the slope of the curve at its midpoint. The inactivation rate (kinact, min^−1) was extracted from the time course of the inactivation of CAT bioactivity using a fixed concentration of HCys. Accordingly, a solution of CAT (3.5–5 μM) was incubated with 2 mM L-HCys in 50 mM KPi, pH 7.4, 1 mM DTPA. Aliquots (10 μl) were taken at intervals (0–480 min), diluted 1:50 in 50 mM KPi, pH 7.4, 1 mM DTPA and assayed for CAT activity as described above. […] The effect of NaSH on the consumption of H2O2 in cell lysates was determined from a solution of cell lysates (0.5–3 mg ml^−1) incubated on ice with various concentrations of NaSH (0–200 μM). […]

HCT-15 cells = assay: H2O2 consumption in cell lysates as a function of NaSH concentration; type: biochemical, human; conditions: HCT-15 cell lysate; read-out: relative IC50 (rate of H2O2 consumption)
Experimental: as §1

MDST8 cells = assay: as above; type: biochemical, human; conditions: MDST8 cell lysate; read-out: relative IC50 (rate of H2O2 consumption)
Experimental: as §1

HCT-116 cells = assay: as above; type: biochemical, human; conditions: HCT-116 cell lysate; read-out: relative IC50 (rate of H2O2 consumption)
Experimental: as §1

HT-29 Glc−/+ cells = assay: as above; type: biochemical, human; conditions: HT-29 Glc−/+ cell lysate (control line); read-out: relative IC50 (rate of H2O2 consumption)
Experimental: as §1

Row | kinact (Bovine liver catalase) | Compound | IC50 (HCT-15 cells) | IC50 (MDST8 cells) | IC50 (HCT-116 cells) | IC50 (HT-29 Glc−/+ cells)
1 | 0.000483 s⁻¹ | NC(CCS)C(=O)O (centres unmarked) [HCys, homocysteine] |  |  |  | 
2 |  | [Na+].[SH-] [NaSH] | 5.8 ± 1.8 µM | 20.4 ± 4 µM | 1.8 ± 1.5 µM | 15 ± 5.3 µM
